molecular target: T1, Flag/GST-tagged recombinant human B-Raf (Homo sapiens, UniProt P15056); assay: B-Raf kinase assay (phosphorylation of GST-MEK1, DELFIA readout); assay type: biochemical; details: B-Raf 0.2 nM, non-active GST-MEK1 2.8 nM, 45 minutes at RT; compound 1 μM to 3 nM or 0.1 uM to 300 pm in half log dilutions
T1 construct: Flag; GST; made in house; host or cells: Sf9 insect cells (B-Raf); E. coli (MEK1-GST)
Description: Testing For B-Raf Kinase Inhibitors
Compounds of Formula A were tested as B-Raf Kinase inhibitors that can inhibit growth of tumor cells which contain oncogenic forms of Receptor Tyrosine Kinases or K-Ras, or B-Raf kinase.
Reagents: Flag/GST-tagged recombinant human B-Raf produced in Sf9 insect cells, human non-active Mek-1-GST (recombinant protein produced in E. coli); and a phospho-MEK1 specific poly-clonal Ab from Cell Signaling Technology (Cat. #9121).
B-Raf1 Kinase Assay Procedure: B-Raf-1 is used to phosphorylate GST-MEK1. MEK1 phosphorylation is measured by a phospho-specific antibody (from Cell Signaling Technology, Cat. #9121) that detects phosphorylation of two serine residues at positions 217 and 221 on MEK1.
The following Kinase Assay Protocol was employed in accordance with the invention:
B-Raf Assay Stock Solutions:
1. Assay Dilution Buffer (ADB): 20 mM MOPS, pH 7.2, 25 mM B-glycerol phosphate, 5 mM EGTA, 1 mM sodium orthovanadate, 1 mM dithiothreitol, 0.01% Triton X-100. 2. Magnesium/ATP Cocktail: ADB solution (minus Triton X-100) plus 200 μM cold ATP and 40 mM magnesium chloride. 3. Active Kinase: Active B-Raf: used at 0.2 nM per assay point. 4. Non-active GST-MEK1: Use at 2.8 nM final concentration). 5. TBST-Tris (50 mM, pH 7.5), NaCl (150 mM), Tween-20 (0.05%)
7. Anti pMEK Ab (Upstate) 8. Anti-rabbit Ab/Europium conjugate (Wallac)
1. Add 25 μl of ADB containing B-Raf and Mek per assay (i.e. per well of a 96 well plate) 2. Add 25 μl of 0.2 mM ATP and 40 mM magnesium chloride in Magnesuium/ATP Cocktail. 3. Incubate for 45 minutes at RT with occasional shaking. 4. Transfer this mixture to an anti-GST Ab coated 96 well plate (Nunc Immunosorb plates coated o/n with a-GST. Plate freshly washed 3× with TBS-T before use. 5. Incubate o/n at […] in cold room. 6. Wash 3× with TBST, add Anti-Phospho MEK1 (1:1000, dilution depends upon lot) 7. Incubate for 60 minutes at RT in a shaking incubator 8. Wash 3× with TBST, add Anti-rabbit Ab/Europium conjugate (Wallac) (1:500, dilution depends upon lot) 9. Incubate for 60 minutes at RT on a platform shaker. 10. Wash plate 3× with TBS-T 11. Add 100 ul of Wallac Delfia Enhancement Solution and shake for 10 minutes. 12. Read plates in Wallac Victor model Plate Reader. 13. Collect data analyze in Excel for single point and IC50 determinations. Mallon R, et al (2001) Anal. Biochem. 294:48.
IC50 determinations were performed on compounds of Formula A from single point assays with >80% inhibition. Single point assay—% inhibition at 10 mg/mL (% inhibition=1—sample treated with compound of Formula A/untreated control sample). The % inhibition was determined for each compound concentration. IC50 determinations—Typically the B-Raf assay was run at compound concentrations from 1 μM to 3 nM or 0.1 uM to 300 pm in half log dilutions. Data was analyzed in Excel and transferred to Radis.

T1 sequence (P15056 whole entry): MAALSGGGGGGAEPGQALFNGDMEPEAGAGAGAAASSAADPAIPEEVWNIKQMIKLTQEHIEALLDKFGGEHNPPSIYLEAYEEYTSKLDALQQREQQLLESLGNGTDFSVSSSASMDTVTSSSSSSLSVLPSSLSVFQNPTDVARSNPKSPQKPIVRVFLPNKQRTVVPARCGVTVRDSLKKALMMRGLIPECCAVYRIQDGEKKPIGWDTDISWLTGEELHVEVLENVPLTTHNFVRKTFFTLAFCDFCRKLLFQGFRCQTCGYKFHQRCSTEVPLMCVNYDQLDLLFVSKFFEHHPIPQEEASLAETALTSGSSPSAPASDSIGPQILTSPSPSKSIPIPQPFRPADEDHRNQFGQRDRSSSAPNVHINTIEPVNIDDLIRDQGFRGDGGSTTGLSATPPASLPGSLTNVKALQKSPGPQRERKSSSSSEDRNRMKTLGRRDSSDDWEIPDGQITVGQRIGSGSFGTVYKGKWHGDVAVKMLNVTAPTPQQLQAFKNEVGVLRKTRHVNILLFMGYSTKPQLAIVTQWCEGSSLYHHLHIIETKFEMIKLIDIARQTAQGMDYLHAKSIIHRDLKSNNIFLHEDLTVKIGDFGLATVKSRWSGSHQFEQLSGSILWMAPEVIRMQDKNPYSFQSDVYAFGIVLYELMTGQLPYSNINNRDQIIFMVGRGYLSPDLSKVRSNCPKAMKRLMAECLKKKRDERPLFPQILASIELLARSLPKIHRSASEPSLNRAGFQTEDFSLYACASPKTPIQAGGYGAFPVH

Compared with `Oc1cccc(-c2c(-c3ccncc3)nn3c(C4CCCCC4)cnnc23)c1` [Example 2, 3-(4-cyclohexyl-7-pyridin-4-yl-pyrazolo[5,1-c][1,2,4]triazin-8-yl)phenol], `Oc1cccc(-c2c(-c3ccncc3)nn3c(-c4ccc(Br)nc4)cnnc23)c1` [Example 5, 3-[4-(6-Bromo-pyridin-3-yl)-7-pyridin-4-yl-pyrazolo[5,1-c][1,2,4]triazin-8-yl]-phenol] is 5.1-fold higher in IC50: 18 nM for the first, 91 nM for the second. The first is the more potent here.

Going from `COc1cccc(-c2c(-c3ccncc3)nn3c(C)c(C(=O)N4CCN(C)CC4)nnc23)c1` [Example 3] to `CN1CCN(c2ccc(-c3cnnc4c(-c5cccc(O)c5)c(-c5ccncc5)nn34)cn2)CC1` [Example 7, 3-{4-[6-(4-Methyl-piperazin-1-yl)-pyridin-3-yl]-7-pyridin-4-yl-pyrazolo[5,1-c][1,2,4]triazin-8-yl}-phenol], the IC50 falls from 1000 nM to 2 nM (500-fold). The second is the more potent here.

Compared with `CN1CCCN(c2ccc(-c3cnnc4c(-c5cccc(O)c5)c(-c5ccncc5)nn34)cn2)CC1` [Example 6, 3-{4-[6-(4-Methyl-[1,4]diazepan-1-yl)-pyridin-3-yl]-7-pyridin-4-yl-pyrazolo[5,1-c][1,2,4]triazin-8yl}-phenol], `CN1CCCN(c2ccc(-c3cnnc4c(-c5ccc(Cl)c(O)c5)c(-c5ccncc5)nn34)cn2)CC1` [Example 14, 2-Chloro-5-{4-[6-(4-methyl-1,4-diazepan-1-yl)pyridin-3-yl]-7-pyridin-4-ylpyrazolo[5,1-c][1,2,4]triazin-8-yl}phenol] is lower in IC50: 2 nM for the first, < 0.3 nM for the second. The second is the more potent here.

Going from `Cc1c(S(=O)(=O)c2ccccc2)nnc2c(-c3cccc(O)c3)c(-c3ccncc3)nn12` [Example 9, 3-[4-Methyl-3-(phenylsulfonyl)-7-pyridin-4-ylpyrazolo[5,1-c][1,2,4]triazin-8-yl]phenol] to `CN1CCN(S(=O)(=O)c2cccc(-c3cnnc4c(-c5ccc(Cl)c(O)c5)c(-c5ccncc5)nn34)c2)CC1` [Example 15, 2-Chloro-5-(4-{3-[(4-methylpiperazin-1-yl)sulfonyl]phenyl}-7-pyridin-4-ylpyrazolo[5,1-c][1,2,4]triazin-8-yl)phenol], the IC50 falls from 55 nM to < 0.3 nM. The second is the more potent here.

Going from `CCOC(=O)c1nnc2c(-c3ccc(Cl)c(OC)c3)c(-c3ccncc3)nn2c1C1CC1` [Example 10, Ethyl 8-(4-chloro-3-methoxyphenyl)-4-cyclopropyl-7-pyridin-4-yl pyrazolo[5,1-c][1,2,4]triazine-3-carboxylate] to `CCOC(=O)N1C2CCC1CC(c1cnnc3c(-c4ccc(Cl)c(O)c4)c(-c4ccncc4)nn13)C2` (stereo not shown) [Example 18, Ethyl 3-[8-(4-chloro-3-hydroxyphenyl)-7-pyridin-4-ylpyrazolo[5,1-c][1,2,4]triazin-4-yl]-8-azabicyclo[3.2.1]octane-8-carboxylate], the IC50 falls from 329 nM to 0.3 nM (1100-fold).

Source: patent US20090082354A1, “PYRAZOLO[5, 1-C] [1,2,4] TRIAZINES, METHODS FOR PREPARATION AND USE THEREOF” (Wyeth, priority 2007, published 2009)
